The record followed here is patent US20250243171A1, “QUINAZOLINE COMPOUNDS FOR TREATMENT OF DISEASE” (Arthrosi Therapeutics, Inc., priority 2021, published 2025).

Broadly, the pEC50 is the negative decadic logarithm of the EC50, by convention in mol/L. Read a high pEC50 as a small EC50.

Each structure is given as a SMILES string. pEC50: −log10 of the molar value.

Holding throughout (test): EC50 assay: Ba/F3 stable cell proliferation (CCK-8, 72 h)
Holding throughout (format): cell-based

Experiment [1] concerns the target T1, Ba/F3 stable cells (Homo sapiens, UniProt P00533, DUP771-773, cells depend on it).
T1 construct: EC50 Ba/F3-EGFR H773-V774insNPH; other: Ba/F3-EGFR H773-V774insNPH cells, 72 h, CCK-8
The settings on record: Ba/F3-EGFR H773-V774insNPH cells. The method, boiled down: (§1)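 Ba/F3 stable cells were seeded at 4,000 cells/90 μL/well in 96-well plates and held 2 h at 37° C. in 5% CO2, then given 10 μL of serially titrated compound (0.1% DMSO final). After 72 h at 37° C., CCK-8 reagent was added for 4 hours and absorbance read at 450 nm to derive EC50.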

The target in experiment [2] is T2, Ba/F3 stable cells (Homo sapiens, UniProt P04626, DUP772-775, cells depend on it).
T2 construct: EC50 Ba/F3-HER2 A775-G776insYVMA; other: Ba/F3-HER2 A775-G776insYVMA cells, 72 h, CCK-8
The settings on record: Ba/F3-HER2 A775-G776insYVMA cells. A digest of the protocol:
as §1

Experiment [3] concerns the target T3, Ba/F3 stable cells (Homo sapiens, UniProt P00533, DUP768-770, cells depend on it).
T3 construct: EC50 Ba/F3-EGFR D770-N771insSVD; other: Ba/F3-EGFR D770-N771insSVD cells, 72 h, CCK-8
Conditions: Ba/F3-EGFR D770-N771insSVD cells. The method, boiled down: as §1

Experiment [4] has as its target T4, Ba/F3 stable cells (Homo sapiens, UniProt P00533, DUP767-769, cells depend on it).
T4 construct: EC50 Ba/F3-EGFR V769-D770insASV; other: Ba/F3-EGFR V769-D770insASV cells, 72 h, CCK-8
Conditions: Ba/F3-EGFR V769-D770insASV cells. A digest of the protocol: as §1

Experiment [5] concerns the target T5, Ba/F3 stable cells (Homo sapiens, UniProt P00533, T790M/L858R, cells depend on it).
T5 construct: EC50 Ba/F3-EGFR L858R-T790M; other: Ba/F3-EGFR L858R-T790M cells, 72 h, CCK-8
The settings on record: Ba/F3-EGFR L858R-T790M cells. A digest of the protocol:
as §1

For experiment [6], the target named is T6, Ba/F3 stable cells (Homo sapiens, UniProt P00533, INS763FQEA, cells depend on it).
T6 construct: EC50 Ba/F3-EGFR A763-Y764insFQEA; other: Ba/F3-EGFR A763-Y764insFQEA cells, 72 h, CCK-8
The settings on record: Ba/F3-EGFR A763-Y764insFQEA cells. The method, boiled down:
as §1

T3 sequence (P00533 with tags, fused parts or gaps DUP768-770): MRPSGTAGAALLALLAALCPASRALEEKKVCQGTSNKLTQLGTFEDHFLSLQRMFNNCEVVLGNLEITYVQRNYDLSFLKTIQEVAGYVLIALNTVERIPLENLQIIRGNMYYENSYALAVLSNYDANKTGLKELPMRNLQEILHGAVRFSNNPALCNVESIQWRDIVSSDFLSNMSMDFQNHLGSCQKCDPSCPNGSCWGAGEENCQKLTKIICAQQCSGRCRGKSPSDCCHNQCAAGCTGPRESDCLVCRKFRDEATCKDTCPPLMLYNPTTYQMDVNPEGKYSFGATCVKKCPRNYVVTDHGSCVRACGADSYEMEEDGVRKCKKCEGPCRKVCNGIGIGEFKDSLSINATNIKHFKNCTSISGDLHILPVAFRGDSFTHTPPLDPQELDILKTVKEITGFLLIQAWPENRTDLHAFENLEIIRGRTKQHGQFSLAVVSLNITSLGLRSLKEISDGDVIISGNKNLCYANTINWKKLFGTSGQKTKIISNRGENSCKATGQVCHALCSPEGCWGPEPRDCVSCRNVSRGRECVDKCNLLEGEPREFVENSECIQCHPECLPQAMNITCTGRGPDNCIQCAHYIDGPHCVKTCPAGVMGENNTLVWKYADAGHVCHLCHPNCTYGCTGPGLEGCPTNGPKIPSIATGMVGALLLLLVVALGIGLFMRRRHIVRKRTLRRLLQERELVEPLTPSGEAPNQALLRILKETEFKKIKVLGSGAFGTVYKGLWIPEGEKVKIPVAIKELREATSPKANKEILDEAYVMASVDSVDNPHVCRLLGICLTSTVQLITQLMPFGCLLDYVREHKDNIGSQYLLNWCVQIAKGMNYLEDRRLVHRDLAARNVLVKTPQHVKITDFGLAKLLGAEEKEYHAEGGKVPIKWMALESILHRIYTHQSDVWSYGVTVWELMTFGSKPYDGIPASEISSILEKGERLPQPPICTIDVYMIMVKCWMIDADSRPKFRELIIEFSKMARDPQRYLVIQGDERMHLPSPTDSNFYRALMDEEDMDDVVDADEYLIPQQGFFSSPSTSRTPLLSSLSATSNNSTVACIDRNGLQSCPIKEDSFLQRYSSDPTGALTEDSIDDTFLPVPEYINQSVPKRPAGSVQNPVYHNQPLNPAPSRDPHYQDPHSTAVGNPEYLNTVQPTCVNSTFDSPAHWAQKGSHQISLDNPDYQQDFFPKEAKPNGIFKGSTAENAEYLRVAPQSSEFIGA
T4 sequence (P00533 with tags, fused parts or gaps DUP767-769): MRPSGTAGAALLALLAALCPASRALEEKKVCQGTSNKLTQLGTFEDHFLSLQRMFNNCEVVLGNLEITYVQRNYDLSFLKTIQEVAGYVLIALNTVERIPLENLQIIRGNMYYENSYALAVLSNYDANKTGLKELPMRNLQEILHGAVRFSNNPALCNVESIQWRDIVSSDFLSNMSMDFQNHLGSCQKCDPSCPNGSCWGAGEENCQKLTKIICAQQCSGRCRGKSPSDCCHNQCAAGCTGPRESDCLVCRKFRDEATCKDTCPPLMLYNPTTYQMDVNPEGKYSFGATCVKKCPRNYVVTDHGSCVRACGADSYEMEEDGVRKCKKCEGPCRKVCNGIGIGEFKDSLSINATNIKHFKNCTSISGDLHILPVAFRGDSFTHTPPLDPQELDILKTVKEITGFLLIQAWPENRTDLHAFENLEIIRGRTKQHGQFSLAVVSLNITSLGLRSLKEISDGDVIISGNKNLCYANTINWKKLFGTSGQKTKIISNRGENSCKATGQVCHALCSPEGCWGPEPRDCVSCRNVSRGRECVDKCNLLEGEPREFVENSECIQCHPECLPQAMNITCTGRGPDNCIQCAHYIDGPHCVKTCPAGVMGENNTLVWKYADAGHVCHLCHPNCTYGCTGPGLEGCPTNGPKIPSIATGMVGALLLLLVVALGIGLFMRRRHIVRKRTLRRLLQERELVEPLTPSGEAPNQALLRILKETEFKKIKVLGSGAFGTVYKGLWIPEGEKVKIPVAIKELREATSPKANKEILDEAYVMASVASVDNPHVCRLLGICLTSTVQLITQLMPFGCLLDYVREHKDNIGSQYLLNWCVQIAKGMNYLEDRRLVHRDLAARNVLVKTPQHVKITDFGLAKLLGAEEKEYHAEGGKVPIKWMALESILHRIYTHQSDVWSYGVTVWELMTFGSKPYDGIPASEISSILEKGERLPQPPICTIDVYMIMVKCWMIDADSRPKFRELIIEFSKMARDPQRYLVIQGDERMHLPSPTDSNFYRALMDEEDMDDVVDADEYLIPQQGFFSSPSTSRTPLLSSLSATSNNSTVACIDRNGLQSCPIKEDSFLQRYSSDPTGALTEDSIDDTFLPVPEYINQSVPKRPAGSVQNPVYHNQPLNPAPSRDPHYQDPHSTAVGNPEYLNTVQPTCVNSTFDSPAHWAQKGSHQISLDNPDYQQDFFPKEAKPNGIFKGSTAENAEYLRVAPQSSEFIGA
T6 sequence (P00533 with tags, fused parts or gaps INS763FQEA): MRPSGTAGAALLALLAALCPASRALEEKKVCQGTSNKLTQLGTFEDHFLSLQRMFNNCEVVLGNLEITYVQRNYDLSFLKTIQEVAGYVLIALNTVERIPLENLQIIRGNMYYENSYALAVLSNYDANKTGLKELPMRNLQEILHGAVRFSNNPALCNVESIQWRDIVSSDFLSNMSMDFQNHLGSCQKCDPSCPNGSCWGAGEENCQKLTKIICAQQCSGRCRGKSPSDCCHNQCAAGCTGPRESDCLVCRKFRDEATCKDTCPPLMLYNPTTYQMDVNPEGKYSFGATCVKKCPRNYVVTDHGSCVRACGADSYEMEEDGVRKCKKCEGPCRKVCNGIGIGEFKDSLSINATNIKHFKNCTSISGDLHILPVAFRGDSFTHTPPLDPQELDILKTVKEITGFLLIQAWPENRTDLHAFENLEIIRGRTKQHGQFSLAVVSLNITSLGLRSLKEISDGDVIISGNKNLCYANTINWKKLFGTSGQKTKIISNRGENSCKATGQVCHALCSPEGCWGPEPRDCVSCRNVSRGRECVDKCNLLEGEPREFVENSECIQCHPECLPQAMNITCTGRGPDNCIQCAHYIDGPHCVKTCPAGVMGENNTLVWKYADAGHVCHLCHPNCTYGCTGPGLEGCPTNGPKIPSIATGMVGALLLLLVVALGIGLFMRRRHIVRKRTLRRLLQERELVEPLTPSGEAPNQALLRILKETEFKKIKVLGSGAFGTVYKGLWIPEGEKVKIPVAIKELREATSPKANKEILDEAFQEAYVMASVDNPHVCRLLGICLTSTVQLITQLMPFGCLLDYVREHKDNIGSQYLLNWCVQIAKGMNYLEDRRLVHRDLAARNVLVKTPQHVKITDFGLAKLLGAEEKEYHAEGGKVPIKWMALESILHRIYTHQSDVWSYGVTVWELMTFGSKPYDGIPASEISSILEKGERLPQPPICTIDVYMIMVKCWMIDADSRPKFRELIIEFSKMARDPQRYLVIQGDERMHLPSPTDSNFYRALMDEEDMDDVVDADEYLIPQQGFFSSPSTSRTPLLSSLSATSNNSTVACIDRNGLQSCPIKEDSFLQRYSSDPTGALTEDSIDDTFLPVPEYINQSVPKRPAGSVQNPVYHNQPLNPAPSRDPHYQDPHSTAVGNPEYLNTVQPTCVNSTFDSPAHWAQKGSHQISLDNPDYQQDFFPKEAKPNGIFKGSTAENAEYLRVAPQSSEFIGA
T1 sequence (P00533 with tags, fused parts or gaps DUP771-773): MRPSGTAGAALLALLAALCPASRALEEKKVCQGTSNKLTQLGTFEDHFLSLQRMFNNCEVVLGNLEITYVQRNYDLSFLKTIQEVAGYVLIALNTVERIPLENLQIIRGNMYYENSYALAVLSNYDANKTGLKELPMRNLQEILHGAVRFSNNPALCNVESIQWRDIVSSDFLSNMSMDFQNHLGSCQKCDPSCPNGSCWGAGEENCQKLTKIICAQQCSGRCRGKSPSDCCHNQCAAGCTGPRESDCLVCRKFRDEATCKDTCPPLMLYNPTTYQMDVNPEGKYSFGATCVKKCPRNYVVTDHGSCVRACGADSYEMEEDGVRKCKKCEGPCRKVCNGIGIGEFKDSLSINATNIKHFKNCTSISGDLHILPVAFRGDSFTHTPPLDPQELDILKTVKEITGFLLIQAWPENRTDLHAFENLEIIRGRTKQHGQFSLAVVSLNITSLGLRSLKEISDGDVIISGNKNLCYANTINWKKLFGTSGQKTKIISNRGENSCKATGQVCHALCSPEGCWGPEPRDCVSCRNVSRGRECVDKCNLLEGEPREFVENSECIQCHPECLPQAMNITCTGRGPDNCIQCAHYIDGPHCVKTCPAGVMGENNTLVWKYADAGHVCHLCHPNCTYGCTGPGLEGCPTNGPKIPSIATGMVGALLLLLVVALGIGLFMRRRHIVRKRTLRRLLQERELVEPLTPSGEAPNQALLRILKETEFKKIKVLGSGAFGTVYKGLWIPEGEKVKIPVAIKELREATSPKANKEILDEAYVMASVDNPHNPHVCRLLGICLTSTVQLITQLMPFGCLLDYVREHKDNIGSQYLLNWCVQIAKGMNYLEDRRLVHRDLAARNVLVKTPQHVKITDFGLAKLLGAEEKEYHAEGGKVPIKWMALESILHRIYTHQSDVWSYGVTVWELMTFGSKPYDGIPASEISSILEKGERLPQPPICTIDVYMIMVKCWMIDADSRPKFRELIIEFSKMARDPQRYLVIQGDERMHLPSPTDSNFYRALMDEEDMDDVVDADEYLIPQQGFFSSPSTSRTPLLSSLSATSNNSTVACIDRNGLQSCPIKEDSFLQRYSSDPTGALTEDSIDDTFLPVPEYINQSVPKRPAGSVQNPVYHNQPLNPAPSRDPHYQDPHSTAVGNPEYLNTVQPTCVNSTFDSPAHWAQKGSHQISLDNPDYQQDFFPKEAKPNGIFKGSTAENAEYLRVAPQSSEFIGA

On to `C=CC(=O)NC1CC(Oc2cc3c(Nc4ccc5ccccc5c4)ncnc3cc2OC)C1` (stereo not drawn) [Compound 80, N-(3-((7-methoxy-4-(naphthalen-2-ylamino)quinazolin-6-yl)oxy)cyclobutyl)acrylamide], for which the pEC50 is < 6.00 in experiment [1]; < 6.00 in experiment [2]; < 6.00 in experiment [3]; < 6.00 in experiment [4]; < 6.00 in experiment [5]; ≥ 6.70 in experiment [6].
In the case of `C=CC(=O)NC1CC(Oc2cc3c(Nc4cccc5ccccc45)ncnc3cc2OC)C1` (stereo not drawn) [Compound 81, N-(3-((7-methoxy-4-(naphthalen-1-ylamino)quinazolin-6-yl)oxy)cyclobutyl)acrylamide], the pEC50 in experiment [1] was 6.00 to 6.70; in experiment [2], 6.00 to 6.70; in experiment [3], ≥ 6.70; in experiment [4], ≥ 6.70; in experiment [5], 6.00 to 6.70; in experiment [6], ≥ 6.70.
On to `C=CC(=O)N[C@H]1C[C@@H](Oc2cc3c(Nc4ccc(Cl)c(Cl)c4)ncnc3cc2OC)C1` [Compound 82, N-((1s,3s)-3-((4-((3,4-dichlorophenyl)amino)-7-methoxyquinazolin-6-yl)oxy)cyclobutyl)acrylamide], for which the pEC50 was 6.00 to 6.70 in experiment [1]; 6.00 to 6.70 in experiment [2]; 6.00 to 6.70 in experiment [3]; ≥ 6.70 in experiment [4]; 6.00 to 6.70 in experiment [5]; ≥ 6.70 in experiment [6].
As for `C=CC(=O)N[C@H]1C[C@@H](Oc2cc3c(Nc4cccc5ccccc45)ncnc3cc2OC)C1` [Compound 83, N-((1s,3s)-3-((7-methoxy-4-(naphthalen-1-ylamino)quinazolin-6-yl)oxy)cyclobutyl)acrylamide], the pEC50 is ≥ 6.70 in experiment [1]; 6.00 to 6.70 in experiment [2]; 6.00 to 6.70 in experiment [3]; ≥ 6.70 in experiment [4]; 6.00 to 6.70 in experiment [5]; ≥ 6.70 in experiment [6].
For the molecule `C=CC(=O)NC1CC(Oc2cc3c(NCc4ccc(F)cc4)ncnc3cc2OC)C1` (stereo not drawn) [Compound 84, N-(3-((4-((4-fluorobenzyl)amino)-7-methoxyquinazolin-6-yl)oxy)cyclobutyl)acrylamide], the negative logarithm of the EC50 (pEC50) in experiment [1] is < 6.00; in experiment [2], < 6.00; in experiment [3] it was < 6.00; in experiment [4], 6.00 to 6.70; in experiment [5] it was < 6.00; in experiment [6] it was ≥ 6.70.
With `C=CC(=O)NC1CC(Oc2cc3c(Nc4ccc(F)c(Cl)c4)ncnc3cc2OC)C1` (stereo not drawn) [Compound 85, N-(3-((4-((3-chloro-4-fluorophenyl)amino)-7-methoxyquinazolin-6-yl)oxy)cyclobutyl)acrylamide], the pEC50 is < 6.00 in experiment [1]; < 6.00 in experiment [2]; < 6.00 in experiment [3]; 6.00 to 6.70 in experiment [4]; < 6.00 in experiment [5]; ≥ 6.70 in experiment [6].
For `C=CC(=O)N[C@H]1C[C@H](Oc2cc3c(Nc4ccc(C#N)c(Cl)c4)ncnc3cc2OC)C1` [Compound 86, N-(3-((4-((3-chloro-4-cyanophenyl)amino)-7-methoxyquinazolin-6-yl)oxy)cyclobutyl)acrylamide], the pEC50 in experiment [1] was < 6.00; in experiment [2], < 6.00; in experiment [3], < 6.00; in experiment [4], < 6.00; in experiment [5] it was < 6.00; in experiment [6] it was 6.00 to 6.70.
`C=CC(=O)NC1CC(Oc2cc3c(Nc4ccc(F)c(C#N)c4)ncnc3cc2OC)C1` (stereo not drawn) [Compound 87, N-(3-((4-((3-cyano-4-fluorophenyl)amino)-7-methoxyquinazolin-6-yl)oxy)cyclobutyl)acrylamide]: the pEC50 is < 6.00 in experiment [1]; < 6.00 in experiment [2]; < 6.00 in experiment [3]; < 6.00 in experiment [4]; < 6.00 in experiment [5]; 6.00 to 6.70 in experiment [6].
`C=CC(=O)NC1CC(Oc2cc3c(Nc4cccc5c4CCC5)ncnc3cc2OC)C1` (stereo not drawn) [Compound 88, N-(3-((4-((2,3-dihydro-1H-inden-4-yl)amino)-7-methoxyquinazolin-6-yl)oxy)cyclobutyl)acrylamide]: the pEC50 was < 6.00 in experiment [1]; < 6.00 in experiment [2]; < 6.00 in experiment [3]; < 6.00 in experiment [4]; < 6.00 in experiment [5]; 6.00 to 6.70 in experiment [6].
Turning to `C=CC(=O)NC1CC(Oc2cc3c(Nc4cccc5c4CCCC5)ncnc3cc2OC)C1` (stereo not drawn) [Compound 89, N-(3-((7-methoxy-4-((5,6,7,8-tetrahydronaphthalen-1-yl)amino)quinazolin-6-yl)oxy)cyclobutyl)acrylamide], the pEC50 is < 6.00 in experiment [1]; < 6.00 in experiment [2]; < 6.00 in experiment [3]; < 6.00 in experiment [4]; < 6.00 in experiment [5]; 6.00 to 6.70 in experiment [6].
Consider `C=CC(=O)N[C@H]1CC[C@@H](Oc2cc3c(Nc4ccc(Cl)c(Cl)c4F)ncnc3cc2OC)CC1` [Compound 90, N-((1s,4s)-4-((4-((3,4-dichloro-2-fluorophenyl)amino)-7-methoxyquinazolin-6-yl)oxy)cyclohexyl)acrylamide], for which the pEC50 is 6.00 to 6.70 in experiment [1]; < 6.00 in experiment [2]; < 6.00 in experiment [3]; ≥ 6.70 in experiment [4]; < 6.00 in experiment [5]; ≥ 6.70 in experiment [6].
As for `C=CC(=O)N[C@H]1CC[C@H](Oc2cc3c(Nc4ccc(Cl)c(Cl)c4F)ncnc3cc2OC)CC1` [Compound 91, N-((1r,4r)-4-((4-((3,4-dichloro-2-fluorophenyl)amino)-7-methoxyquinazolin-6-yl)oxy)cyclohexyl)acrylamide], the pEC50 was 6.00 to 6.70 in experiment [1]; 6.00 to 6.70 in experiment [2]; 6.00 to 6.70 in experiment [3]; 6.00 to 6.70 in experiment [4]; < 6.00 in experiment [5]; ≥ 6.70 in experiment [6].
As for `C=CC(=O)NC1CC(Nc2cc3c(Nc4ccc(Cl)c(Cl)c4F)ncnc3cc2OC)C1` (stereo not drawn) [Compound 92, N-(3-((4-((3,4-dichloro-2-fluorophenyl)amino)-7-methoxyquinazolin-6-yl)amino)cyclobutyl)acrylamide], the pEC50 was ≥ 6.70 in experiment [1]; ≥ 6.70 in experiment [2]; 6.00 to 6.70 in experiment [3]; ≥ 6.70 in experiment [4]; 6.00 to 6.70 in experiment [5]; ≥ 6.70 in experiment [6].
`C=CC(=O)N1CCC(Oc2cc3c(C(=O)NCc4ccc(F)cc4)ncnc3cc2OC)CC1` [Compound 94, 6-((1-acryloylpiperidin-4-yl)oxy)-N-(4-fluorobenzyl)-7-methoxyquinazoline-4-carboxamide]: the pEC50 was < 6.00 in experiment [1]; < 6.00 in experiment [2]; < 6.00 in experiment [3]; < 6.00 in experiment [4]; < 6.00 in experiment [5]; ≥ 6.70 in experiment [6].
As for `C=CC(=O)N1CCC(Oc2cc3c(C(=O)N[C@H](C)c4ccc(F)cc4)ncnc3cc2OC)CC1` [Compound 95, (R)-6-((1-acryloylpiperidin-4-yl)oxy)-N-(1-(4-fluorophenyl)ethyl)-7-methoxyquinazoline-4-carboxamide], the pEC50 in experiment [1], in experiment [2], in experiment [3], in experiment [4], in experiment [5] and in experiment [6] was < 6.00 throughout.
In the case of `C=CC(=O)NC1CC(Oc2cc3c(C(=O)NCc4ccc(F)cc4)ncnc3cc2OC)C1` (stereo not drawn) [Compound 96, 6-(3-acrylamidocyclobutoxy)-N-(4-fluorobenzyl)-7-methoxyquinazoline-4-carboxamide], the pEC50 in experiment [1], in experiment [2], in experiment [3], in experiment [4], in experiment [5] and in experiment [6] was < 6.00 in each case.
On to `C=CC(=O)N[C@H]1C[C@@H](Oc2cc3c(C(=O)N[C@H](C)c4ccc(F)cc4)ncnc3cc2OC)C1` [Compound 97, 6-((1s,3S)-3-acrylamidocyclobutoxy)-N-((R)-1-(4-fluorophenyl)ethyl)-7-methoxyquinazoline-4-carboxamide], for which the pEC50 in experiment [1], in experiment [2], in experiment [3], in experiment [4], in experiment [5] and in experiment [6] was < 6.00 in each case.
